Experimental data from US20150087657A1, “MULTICOMPONENT CRYSTALLINE SYSTEM OF VORICONAZOLE WITH FUMARIC ACID” (BASF SE, priority 2011, published 2015).
Values after ≈ are worked out from the molar mass of the structure shown.

Experiment: Solubility determination of vrx and vrx-co-crystals in water
Type: physicochemical
Settings: 37° C.
Procedure: Solubility determinations of the vrx (free drug substance), the vrx-fumaric acid co-crystal and the vrx-L-tartaric acid co-crystal described in the below comparative example are carried out as follows. To 20 mg of a solid sample, 5.0 ml water is added and the mixture is placed on a laboratory shaker at 500 rpm at 37° C. After 24 hours, a small sample of about 1.0 ml is recovered with a syringe and filtered through a 0.1 micrometer PVDF Millipore filtration unit. This sample is appropriately diluted and the concentration is determined by HPLC.

solubility at 24 h (thermodynamic from solid, equilibration time 24 h, 20 mg solid in 5.0 ml, HPLC, value refers to Voriconazole) [µg/mL]	SMILES	aqueous solubility higher than the free drug substance and the L-tartaric acid co-crystal (24 h, relative to table 4 comparators)	Solubility of Voriconazole (equilibration time 24 h, 20 mg solid in 5.0 ml, HPLC, value refers to Voriconazole) [µg/mL]
1010 (≈ 2890 µM)	C[C@@H](c1ncncc1F)[C@](O)(Cn1cncn1)c1ccc(F)cc1F [Voriconazole free drug, (2R,3S)-2-(2,4-difluorophenyl)-3-(5-fluoropyrimidin-4-yl)-1-(1H-1,2,4-triazol-1-yl)butan-2-ol, reference compound]	–	–
–	CC(c1ncncc1F)C(O)(Cn1cncn1)c1ccc(F)cc1F.O=C(O)C=CC(=O)O (stereo not drawn) [Co-crystal with fumaric acid]	about 30%	1300
